One experiment has as its system WI-38. Description: Cytotoxicity against human WI-38 cells assessed as inhibition of cell proliferation incubated for 72 hrs by MTT assay. The format is cell-based. To be noted: WI-38, 72 h. On the technique in general: Tetrazolium dyes change colour on reduction, which living cells bring about.
The subject of experiment [1] is Trypanosoma brucei rhodesiense. Description: Antitrypanosomal activity against Trypanosoma brucei rhodesiense IL-1501 assessed as inhibition of parasitic growth incubated for 69 hrs by resazurin dye based fluorescence assay. The format is functional, organism-based. The note with it: IL-1501, 69 h.

Molecules are shown by their SMILES.

As for `COC1=CC(=O)N[C@H]1C(C)C`, the IC50 – broadly, the concentration that inhibits the measured activity by half – was > 50 µM with WI-38 and 35 µM in experiment [1].

With `CC[C@H](C)[C@@H](C(=O)N1CCC[C@@H]1C(=O)N1C(=O)C=C(OC)[C@@H]1C(C)C)N(C)C(=O)[C@@H]1CCCN1C(=O)[C@H](C(C)C)N(C)C(=O)[C@@H](Cc1ccccc1)NC(=O)[C@H](Cc1ccccc1)N(C)C`, the IC50 in the experiment with WI-38 was > 20 µM; in experiment [1] it was 1.8 µM.

On to `CC[C@H](C)[C@H](NC)C(=O)N1CCCC1C(=O)N1C(=O)C=C(OC)[C@@H]1C(C)C` (single isomer, unassigned), for which the IC50 in the experiment with WI-38 was > 50 µM; in experiment [1], 24 µM.

For the molecule `COC1=CC(=O)N(C(=O)C2CCCN2)[C@H]1C(C)C` (single isomer, unassigned), the IC50 with WI-38 is > 50 µM; in experiment [1] it was 33 µM.

For `CC[C@H](C)[C@@H](C(=O)N1CCCC1C(=O)N1C(=O)C=C(OC)[C@@H]1C(C)C)N(C)C(=O)[C@@H]1CCCN1` (single isomer, unassigned), the IC50 is > 50 µM with WI-38 and 15 µM in experiment [1].

For the molecule `CC[C@H](C)[C@@H](C(=O)N1CCCC1C(=O)N1C(=O)C=C(OC)[C@@H]1C(C)C)N(C)C(=O)[C@@H]1CCCN1C(=O)[C@@H](NC)C(C)C` (single isomer, unassigned), the IC50 was > 50 µM in the experiment on WI-38 and 17 µM in experiment [1].

On to `N=C(N)c1ccc(OCCCCCOc2ccc(C(=N)N)cc2)cc1` [PENTAMIDINE], for which the IC50 in experiment [1] came to 0.005 µM.

The values are drawn from ChEMBL document CHEMBL5055641, “First Total Synthesis and Structure-Activity Relationship of Iheyamide A, an Antitrypanosomal Linear Peptide Isolated from a Dapis sp. Marine Cyanobacterium” (J Nat Prod, 2021).
